Experimental data published in BigSolDB 2.1.

CN1COCN(Cc2cnc(Cl)s2)C1=N[N+](=O)[O-]
solubility (mole fraction)
Conditions | 278.15 K | 283.15 K | 288.15 K | 293.15 K | 298.15 K | 303.15 K | 308.15 K | 313.15 K | 318.15 K | 323.15 K
in DMF | 0.059 | 0.0658 | 0.0738 | 0.0816 | 0.0892 | 0.0985 | 0.11 | 0.123 | 0.137 | 0.152
in NMP | 0.0818 | 0.0882 | 0.0952 | 0.102 | 0.111 | 0.119 | 0.128 | 0.138 | 0.149 | 0.161
in acetone | 0.00632 | 0.00763 | 0.00888 | 0.0101 | 0.0121 | 0.014 | 0.0164 | 0.0194 | 0.023 | 0.0268
in dichloromethane | 0.0126 | 0.0152 | 0.0174 | 0.0197 | 0.0222 | 0.0249 | 0.0277 | 0.0306 | – | –
in ethyl acetate | 0.00099 | 0.00125 | 0.00155 | 0.00183 | 0.0022 | 0.00257 | 0.00295 | 0.00339 | 0.00384 | 0.00429
in methyl acetate | 0.00283 | 0.00331 | 0.00382 | 0.00446 | 0.00511 | 0.00597 | 0.00708 | 0.00825 | 0.0096 | 0.0114
